In patent US20230312550A1, “N-(2-(4-CYANOTHIAZOLIDIN-3-YL)-2-OXOETHYL)-QUINOLINE-4-CARBOXAMIDES” (AstraZeneca AB, priority 2020, published 2023):
Converted amounts (≈) assume the structure as drawn.

Assays:
[1] = Metabolic stability in human liver microsomes (HLM); details: human
Method: Metabolic stability in HLM was measured as described in J Comput Aided Mol Des 2015, 29, 795.

[2] = molecular target: human Fibroblast activation protein alpha (hFAP) (Homo sapiens (Human), UniProt Q12884); experiment: hFAP inhibition assay (tight binders); format: biochemical; details: Ala-Pro-AMC 20 μM, n = 1 or geometric mean n = 2-6; note: hFAP 2.4 pM
Method: The plates were read on a PHERAstar® reader with excitation 340 nm and emission 460 nm. Data were analyzed in Genedata Screener®. IC50 values were determined by plotting % inhibition versus log compound concentration and using a one site dose response model.

Kinetic solubility = details: kinetic from dmso stock
Method: Kinetic solubility was measured as described in Comput Aided Mol Des 2015, 29, 795.

[3] = Metabolic stability in rat hepatocytes (rHep); details: n = 1 or geometric mean of n = 2-3
hFAP (M39-A757) = hFAP (M39-A757) (Homo sapiens (Human), UniProt Q12884); experiment: hFAP binding assay (surface plasmon resonance); details: SPR, 20° C.; for hFAP Binding assay k(off) / hFAP Binding assay k(on): single cycle kinetics; for Kd: n = 1 or geometric mean n = 2-4
[4] = molecular target: Prolyl endopeptidase, Prolyl Oligopeptidase (hPREP) (Homo sapiens (Human), UniProt P48147); experiment: hPrep inhibition assay; format: biochemical; details: hPREP 0.6 nM, Z-Gly-Pro-amino-methylcoumarin 50 μM; read-out: PREP IC50
In short: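 Recombinant human PREP at 0.6 nM final with Z-Gly-Pro-AMC substrate at 50 μM final in Tris-HCl pH 7.5, NaCl, Triton X-100, glutathione; 15 min rt preincubation then 20 min rt reaction in dark. AMC fluorescence (ex 340/em 460 nm); IC50 from one-site dose-response fit of % inhibition.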

[5] = HLM CLint, n = 1 or average of n = 2-3
[6] = Solubility, kinetic solubility, n = 1 or average of n = 2-3

Chain of hFAP (M39-A757) (Q12884 39-757): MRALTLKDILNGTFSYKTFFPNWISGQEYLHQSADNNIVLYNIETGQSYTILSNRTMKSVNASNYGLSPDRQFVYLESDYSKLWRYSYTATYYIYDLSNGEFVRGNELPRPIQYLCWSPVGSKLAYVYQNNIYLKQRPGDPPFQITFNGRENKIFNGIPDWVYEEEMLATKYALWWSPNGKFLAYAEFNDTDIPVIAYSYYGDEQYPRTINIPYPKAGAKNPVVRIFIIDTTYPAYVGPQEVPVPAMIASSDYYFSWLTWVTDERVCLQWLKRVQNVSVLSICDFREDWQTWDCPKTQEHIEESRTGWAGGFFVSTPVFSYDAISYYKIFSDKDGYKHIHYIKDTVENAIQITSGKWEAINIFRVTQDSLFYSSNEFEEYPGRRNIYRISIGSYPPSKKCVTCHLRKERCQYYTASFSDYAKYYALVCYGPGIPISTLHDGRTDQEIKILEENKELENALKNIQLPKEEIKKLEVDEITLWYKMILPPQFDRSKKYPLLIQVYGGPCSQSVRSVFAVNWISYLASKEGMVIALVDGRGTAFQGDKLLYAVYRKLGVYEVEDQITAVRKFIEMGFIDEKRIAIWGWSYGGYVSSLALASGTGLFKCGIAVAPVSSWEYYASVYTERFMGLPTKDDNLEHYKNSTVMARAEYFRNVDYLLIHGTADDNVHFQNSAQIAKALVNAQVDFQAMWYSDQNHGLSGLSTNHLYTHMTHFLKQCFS
Chain of Prolyl endopeptidase, Prolyl Oligopeptidase (hPREP) (P48147 whole entry): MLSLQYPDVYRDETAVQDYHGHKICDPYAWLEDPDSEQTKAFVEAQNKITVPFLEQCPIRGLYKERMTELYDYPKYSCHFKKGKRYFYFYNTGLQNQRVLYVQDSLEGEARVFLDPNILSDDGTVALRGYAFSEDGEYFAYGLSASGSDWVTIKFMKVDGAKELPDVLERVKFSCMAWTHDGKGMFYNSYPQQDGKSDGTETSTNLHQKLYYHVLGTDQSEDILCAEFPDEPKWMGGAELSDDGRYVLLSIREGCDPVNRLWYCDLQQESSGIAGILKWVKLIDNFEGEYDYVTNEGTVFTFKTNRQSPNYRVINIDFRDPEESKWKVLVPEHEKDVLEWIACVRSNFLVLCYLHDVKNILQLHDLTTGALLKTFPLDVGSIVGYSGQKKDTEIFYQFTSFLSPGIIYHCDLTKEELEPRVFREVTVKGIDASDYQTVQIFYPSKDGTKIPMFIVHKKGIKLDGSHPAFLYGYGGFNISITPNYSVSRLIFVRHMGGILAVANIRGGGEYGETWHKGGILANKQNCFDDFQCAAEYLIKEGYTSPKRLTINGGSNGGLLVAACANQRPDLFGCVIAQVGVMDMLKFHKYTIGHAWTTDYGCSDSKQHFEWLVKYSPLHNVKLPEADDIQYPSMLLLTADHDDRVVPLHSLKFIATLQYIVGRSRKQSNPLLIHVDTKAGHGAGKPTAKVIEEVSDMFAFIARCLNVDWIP
Chain of human Fibroblast activation protein alpha (hFAP) (Q12884 38-760): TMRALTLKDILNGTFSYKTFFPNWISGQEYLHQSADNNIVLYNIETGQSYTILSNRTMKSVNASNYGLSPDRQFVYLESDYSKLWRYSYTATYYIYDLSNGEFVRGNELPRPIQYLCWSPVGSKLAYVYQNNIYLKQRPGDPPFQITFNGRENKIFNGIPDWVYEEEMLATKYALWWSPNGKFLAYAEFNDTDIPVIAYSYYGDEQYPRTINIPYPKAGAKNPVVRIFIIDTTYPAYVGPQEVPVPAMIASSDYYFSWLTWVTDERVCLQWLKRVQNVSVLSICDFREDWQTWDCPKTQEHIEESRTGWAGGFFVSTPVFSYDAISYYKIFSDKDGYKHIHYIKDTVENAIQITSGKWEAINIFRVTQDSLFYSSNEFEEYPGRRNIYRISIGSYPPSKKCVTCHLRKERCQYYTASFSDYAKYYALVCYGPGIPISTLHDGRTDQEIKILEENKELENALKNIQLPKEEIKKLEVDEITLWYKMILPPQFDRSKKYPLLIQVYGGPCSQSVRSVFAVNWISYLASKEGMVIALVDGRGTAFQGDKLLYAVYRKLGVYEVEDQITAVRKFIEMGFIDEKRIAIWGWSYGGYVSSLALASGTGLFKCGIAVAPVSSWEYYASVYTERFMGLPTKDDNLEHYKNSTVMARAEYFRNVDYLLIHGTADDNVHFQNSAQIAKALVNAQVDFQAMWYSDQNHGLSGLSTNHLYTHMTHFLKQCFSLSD

Row | Compound | microsomal CLint [1, 5] | IC50 [2] | solubility (Kinetic solubility; [6]) | rHep CLint [3] | hFAP Binding assay k(off) (hFAP (M39-A757)) | hFAP Binding assay k(on) (hFAP (M39-A757)) | Kd (hFAP (M39-A757)) | IC50 [4] | microsomal CLint [1] | solubility (Kinetic solubility)
1 | CC1CC2(C1)CN(c1ccc3nccc(C(=O)NCC(=O)N4CSC[C@H]4C#N)c3c1)C2 [Example 149, (R)—N-(2-(4-Cyanothiazolidin-3-yl)-2-oxoethyl)-6-(6-methyl-2-azaspiro[3.3]heptan-2-yl)quinoline-4-carboxamide] | – | 0.097 nM | – | 7 μL/min/1E6 | 0.000039 s⁻¹ | 4800000 M⁻¹ s⁻¹ | 0.0087 nM | 470 nM | 56 µL/min/mg | 130 µM (≈ 56.6 µg/mL)
2 | N#C[C@@H]1CSCN1C(=O)CNC(=O)c1ccnc2ccc(N3CC4(CC(C(F)(F)F)C4)C3)cc12 [Example 150, (R)—N-(2-(4-Cyanothiazolidin-3-yl)-2-oxoethyl)-6-(6-(trifluoromethyl)-2-azaspiro[3.3]heptan-2-yl)quinoline-4-carboxamide] | – | 0.5 nM | – | 5 μL/min/1E6 | 0.000043 s⁻¹ | 280000 M⁻¹ s⁻¹ | 0.16 nM | 2000 nM | 49 µL/min/mg | 77 µM (≈ 37.7 µg/mL)
3 | N#C[C@@H]1CSCN1C(=O)CNC(=O)c1ccnc2ccc(N3CCC4(CCOCC4)CC3)cc12 [Example 162, (R)—N-(2-(4-cyanothiazolidin-3-yl)-2-oxoethyl)-6-(3-oxa-9-azaspiro[5.5]undecan-9-yl)quinoline-4-carboxamide] | – | 0.053 nM | – | 3.4 μL/min/1E6 | 0.000028 s⁻¹ | 1900000 M⁻¹ s⁻¹ | 0.018 nM | 280 nM | 44 µL/min/mg | 140 µM (≈ 67.1 µg/mL)
4 | N#C[C@@H]1CSCN1C(=O)CNC(=O)c1ccnc2ccc(N3CC4(CC4)C3)cc12 [Example 164, (R)—N-(2-(4-Cyanothiazolidin-3-yl)-2-oxoethyl)-6-(5-azaspiro[2.3]hexan-5-yl)quinoline-4-carboxamide] | – | 0.081 nM | – | 8.1 μL/min/1E6 | 0.000036 s⁻¹ | 1400000 M⁻¹ s⁻¹ | 0.027 nM | 240 nM | 22 µL/min/mg | 64 µM (≈ 26.1 µg/mL)
5 | N#C[C@@H]1CSCN1C(=O)CNC(=O)c1ccnc2cc(Cl)c(N3CCOCC3)cc12 [Example 179, (R)-7-Chloro-N-(2-(4-cyanothiazolidin-3-yl)-2-oxoethyl)-6-morpholino-quinoline-4-carboxamide] | 140 µL/min/mg | 0.048 nM | 110 µM (≈ 49.1 µg/mL) | 47 μL/min/1E6 | 0.00016 s⁻¹ | 3200000 M⁻¹ s⁻¹ | 0.052 nM | 470 nM | – | –
6 | N#C[C@@H]1CSCN1C(=O)CNC(=O)c1ccnc2c(Cl)cc(N3CCOCC3)cc12 [Example 180, (R)-8-Chloro-N-(2-(4-cyanothiazolidin-3-yl)-2-oxoethyl)-6-morpholino-quinoline-4-carboxamide] | 110 µL/min/mg | 0.2 nM | 170 µM (≈ 75.8 µg/mL) | 3 μL/min/1E6 | 0.00095 s⁻¹ | 560000 M⁻¹ s⁻¹ | 1.3 nM | 590 nM | – | –
7 | CCC1(OC)CCN(c2ccc3nccc(C(=O)NCC(=O)N4CSC[C@H]4C#N)c3c2)CC1 [Example 191, (R)—N-(2-(4-Cyanothiazolidin-3-yl)-2-oxoethyl)-6-(4-ethyl-4-methoxy-piperidin-1-yl)quinoline-4-carboxamide] | 94 µL/min/mg | 0.038 nM | 400 µM (≈ 187 µg/mL) | 5.3 μL/min/1E6 | 0.000033 s⁻¹ | 1500000 M⁻¹ s⁻¹ | 0.022 nM | 550 nM | – | –
8 | C[C@@H]1CN(c2ccc3nccc(C(=O)NCC(=O)N4CSC[C@H]4C#N)c3c2)C[C@H](C)[C@]1(C)O [Example 193, N-(2-((R)-4-Cyanothiazolidin-3-yl)-2-oxoethyl)-6-((3R,4S,5S)-4-hydroxy-3,4,5-trimethylpiperidin-1-yl)quinoline-4-carboxamide] | 53 µL/min/mg | 0.24 nM | 940 µM (≈ 440 µg/mL) | 11 μL/min/1E6 | 0.00012 s⁻¹ | 740000 M⁻¹ s⁻¹ | 0.16 nM | 360 nM | – | –
9 | N#C[C@@H]1CSCN1C(=O)CNC(=O)c1ccnc2ccc(N3C[C@H]4CCC[C@@H](C3)O4)cc12 [Example 194, 6-((1R,5S)-9-Oxa-3-azabicyclo[3.3.1]nonan-3-yl)-N-(2-((R)-4-cyano-thiazolidin-3-yl)-2-oxoethyl)quinoline-4-carboxamide] | 78 µL/min/mg | 0.046 nM | 480 µM (≈ 217 µg/mL) | 44 μL/min/1E6 | 0.000068 s⁻¹ | 1100000 M⁻¹ s⁻¹ | 0.066 nM | 460 nM | – | –
10 | N#C[C@@H]1CSCN1C(=O)CNC(=O)c1ccnc2ccc(N3CC4(CCS4)C3)cc12 [Example 222, (R)—N-(2-(4-Cyanothiazolidin-3-yl)-2-oxoethyl)-6-(1-thia-6-azaspiro[3.3]heptan-6-yl)quinoline-4-carboxamide] | – | 0.087 nM | – | 4.2 μL/min/1E6 | – | – | 0.022 nM | 490 nM | 40 µL/min/mg | 120 µM (≈ 52.7 µg/mL)

The next lines start with results.

Row | microsomal CLint [1, 5] | IC50 [2] | solubility (Kinetic solubility; [6]) | rHep CLint [3] | hFAP Binding assay k(off) (hFAP (M39-A757)) | hFAP Binding assay k(on) (hFAP (M39-A757)) | Kd (hFAP (M39-A757)) | IC50 [4] | Compound | microsomal CLint [1] | solubility (Kinetic solubility)
11 | 53 µL/min/mg | 0.059 nM | 3.4 µM (≈ 1.44 µg/mL) | 12 μL/min/1E6 | 0.0002 s⁻¹ | 6600000 M⁻¹ s⁻¹ | 0.031 nM | 420 nM | CC(C)C1CN(c2ccc3nccc(C(=O)NCC(=O)N4CSC[C@H]4C#N)c3c2)C1 [Example 148, (R)—N-(2-(4-Cyanothiazolidin-3-yl)-2-oxoethyl)-6-(3-isopropylazetidin-1-yl)quinoline-4-carboxamide] | – | –
12 | 17 µL/min/mg | 0.1 nM | 8.9 µM (≈ 4.13 µg/mL) | 4.7 μL/min/1E6 | 0.00029 s⁻¹ | 3100000 M⁻¹ s⁻¹ | 0.1 nM | 560 nM | N#C[C@@H]1CSCN1C(=O)CNC(=O)c1ccnc2ccc(N3CC(CC(F)(F)F)C3)cc12 [Example 158, (R)—N-(2-(4-Cyanothiazolidin-3-yl)-2-oxoethyl)-6-(3-(2,2,2-trifluoroethyl)-azetidin-1-yl)quinoline-4-carboxamide] | – | –
13 | 45 µL/min/mg | 0.05 nM | 1.8 µM (≈ 0.798 µg/mL) | 33 μL/min/1E6 | 0.000074 s⁻¹ | 1100000 M⁻¹ s⁻¹ | 0.068 nM | 210 nM | N#C[C@@H]1CSCN1C(=O)CNC(=O)c1ccnc2ccc(N3CC4C(C3)C4(F)F)cc12 (stereo partly drawn) [Example 160, N-(2-((R)-4-Cyanothiazolidin-3-yl)-2-oxoethyl)-6-(6,6-difluoro-3-azabicyclo[3.1.0]hexan-3-yl)quinoline-4-carboxamide] | – | –
14 | 6.7 µL/min/mg | 0.052 nM | 84 µM (≈ 35.7 µg/mL) | 8.5 μL/min/1E6 | 0.00028 s⁻¹ | 14000000 M⁻¹ s⁻¹ | 0.022 nM | 470 nM | CO[C@@H]1CCN(c2ccc3nccc(C(=O)NCC(=O)N4CSC[C@H]4C#N)c3c2)C1 [Example 161, N-(2-((R)-4-Cyanothiazolidin-3-yl)-2-oxoethyl)-6-((R)-3-methoxy-pyrrolidin-1-yl)quinoline-4-carboxamide] | – | –
15 | > 300 µL/min/mg | 0.67 nM | 410 µM (≈ 192 µg/mL) | 37 μL/min/1E6 | 0.0013 s⁻¹ | 1800000 M⁻¹ s⁻¹ | 0.71 nM | 310 nM | N#C[C@@H]1CSCN1C(=O)CNC(=O)c1ccnc2ccc(-n3ccnc3-c3ccccc3)cc12 [Example 217, (R)—N-(2-(4-Cyanothiazolidin-3-yl)-2-oxoethyl)-6-(2-phenyl-1H-imidazol-1-yl)quinoline-4-carboxamide] | – | –
16 | 37 µL/min/mg | 0.068 nM | < 0.16 µM | 18 μL/min/1E6 | 0.00032 s⁻¹ | 670000 M⁻¹ s⁻¹ | 0.48 nM | 390 nM | N#C[C@@H]1CSCN1C(=O)CNC(=O)c1ccnc2ccc(-n3ccc(-c4ccccc4)c3)cc12 [Example 218, (R)—N-(2-(4-Cyanothiazolidin-3-yl)-2-oxoethyl)-6-(3-phenyl-1H-pyrrol-1-yl)quinoline-4-carboxamide] | – | –
17 | 160 µL/min/mg | 0.11 nM | 2.5 µM (≈ 1.11 µg/mL) | 75 μL/min/1E6 | 0.0002 s⁻¹ | 2400000 M⁻¹ s⁻¹ | 0.083 nM | 230 nM | N#C[C@@H]1CSCN1C(=O)CNC(=O)c1ccnc2ccc(-n3ccc4c3CCCC4)cc12 [Example 219, (R)—N-(2-(4-Cyanothiazolidin-3-yl)-2-oxoethyl)-6-(4,5,6,7-tetrahydro-1H-indol-1-yl)quinoline-4-carboxamide] | – | –
